# How the values were obtained:
# [1] = system: KARPAS-422 cells; test: Cell proliferation analysis, KARPAS-422, 13 days, CellTiter-Glo; assay type: cell-based; conditions: Homo sapiens, 312 h
# Experimental: Human B-cell non-Hodgkin lymphoma cells, KARPAS-422 S, were cultured in a culture flask using standard cell culture conditions. The medium contained 15% fetal bovine serum (FBS, Invitrogen, product number 10099-141) and 1% penicillin/streptomycin solution (P/S) RPMI-1640 (Invitrogen, product number 11875), and the culture flask was placed and cultured in a sterile incubator at the temperature of 37° C. and […] with a relative humidity of […] To detect the effect of PRC2 inhibitors on cell proliferation, cells in exponential growth phase were taken and seeded into a 96-well plate (Corning, product number 3904) at a density of 1×10^4 cells/well, and 100 μL of the medium was added into each well. Subsequently, the compounds at different concentrations disclosed in the present disclosure were added into the wells where cells had already been seeded (9 concentration gradients were provided for each compound, with the highest detection concentration at 10 μM, 3-fold gradient dilution) and two replicates in parallel were provided for each treatment concentration. DMSO was at a final concentration of 0.5%. Afterwards, viable cell numbers were determined using Vi-CELL (Beckman Coulter) every 3-4 days. Cells counted were seeded into a new 96-well plate at the same density (1×10^4 cells/well) each time. The wells were supplemented with a fresh medium to 100 μL and at the same time, compounds at different concentrations were added. The cells were cultured to day 13. 100 μL of CellTiter-Glo (CellTiter-GloCellTiter-GloCellTiter-GloCTG) (Promega, product number G7573) was added into each well. The plate was placed in the dark at room temperature for 10-20 minutes and the luminescence signal was read using SpectraMax i3× (Molecular Devices).
# [2] = system: trimethylation level of histone H3K27 in G401 cells; test: ELISA (H3K27 trimethylation) analysis in G401 cells; assay type: cell-based; conditions: Homo sapiens, G-401, 72 hours, H3K27me3 standardized to H3
# Experimental: 3-fold series dilution with DMSO was carried out on the representative compounds of the present disclosure; and 10 concentration gradients were detected for each compound, with the highest detection concentration of 10 μM. The compounds were diluted 200-fold into the G401 cells cultured in a 96-well plate (DMSO at a final concentration of 0.5%). After the cells, administered with the compound, were cultured for 72 hours, the trimethylation level of the histone H3K27 was detected using the ELISA method.
# Extraction of the histone: in a 96-well plate, the compound-treated cells were washed three times with 1×PBS (10×PBS buffer (80 g NaCl (Sigma, product number S3014), 2 g KCl (Sigma, product number 60128), 14.4 g Na2HPO4 (Sigma, product number S5136), and 2.4 g KH2PO4 (Sigma, product number P9791) in 1 L of water, adjusting the pH to 7.4)). 100 μL of 0.4 N HCl was added into each well. The plate was placed at 4° C. and gently agitated for 2 hours to lyse the cells. The cell lysate was then neutralized with 80 μL of neutralization buffer (0.5 M disodium hydrogen phosphate, pH 12.5, 2.5 mM DTT; 1% cocktail (Sigma, product number P8340)) (the cell lysate and the neutralization buffer were thoroughly mixed to uniformity).
# ELISA detection method: the cell lysate was transferred in parallel to two 384-well detection plates (PerkinElmer, OptiPlate-384HB, product number 6007290), wherein one of the plates was used to detect the H3K27 trimethylation level and the other plate was used to determine the level of H3. PBS was used to adjust the final volume to 50 μL/well. The plates were coated at 4° C. overnight. On the following day, the solution inside the wells was discarded and the plates were washed 5 times with TBST buffer (1×TBS (10×TBS: 24.2 g Tris (Sigma, product number T6066), 80 g NaCl (Sigma, product number S3014) in 1 L of water, adjusting the pH with HCl to 7.6), 0.1% Tween-20) and dried on an absorbent paper by inversion. 70 μL of blocking buffer (TBST, 5% BSA) was added into the coated reaction wells and the plates were incubated at room temperature for 1 hour. The blocking buffer was discarded and primary antibodies were added (30 μL/well). The desired primary antibodies were all diluted with a blocking buffer and the dilution factor was as follows: anti-H3K27me3 antibody (Cell Signaling Technology, product number 9733), 1:2000 dilution; anti-H3 antibody (Cell Signaling Technology, product number 4499), 1:10000 dilution. After the primary antibodies were added, the plates were placed at room temperature and incubated for 1 hour. After the plates were washed with TBST 5 times, the plates were dried by inversion. A secondary antibody (30 μL/well) was added to each of the reaction wells and the plates were incubated at room temperature for 1 hour. The secondary antibody (anti-rabbit antibody (Jackson ImmunoResearch, product number 111-035-003)) was diluted 2000-fold with a blocking buffer before use. After 1 hour, the plates were washed with TBST and dried by inversion. 30 μL of ECL substrate (Pierce, product number 34080) was added into each well and centrifuged at 2000 rpm for 30 seconds. The signal of each sample was detected using SpectraMax (Molecular Devices). Data processing: H3K27 methylation readings were first standardlized using H3 signals and 0.5% DMSO-treated samples was used as the control to calculate the inhibition percentage of the compounds. Data were fit to obtain Dose-Response curves using the GraphPad prism 5 program and the IC50 values of the test compounds were obtained.
SMILES,IC50 [1],IC50 [2]
"CC1CN(c2ccc(-c3cnc(NCc4c(F)ccc5c4CCO5)n4cnnc34)c3ncnn23)CCO1 (stereo not drawn) [N-((5-fluoro-2,3-dihydrobenzofuran-4-yl)methyl)-8-(5-(2-methylmorpholino)-[1,2,4]triazolo[1,5-a]pyridin-8-yl)-[1,2,4]triazolo[4,3-c]pyrimidin-5-amine]",0.0005 µM,0.0008 µM
"CP(C)(=O)c1cnc2c(-c3cnc(NCc4c(F)ccc5c4CCO5)n4cnnc34)cc(F)cn12 [(6-fluoro-8-(5-(((5-fluoro-2,3-dihydrobenzofuran-4-yl)methyl)amino)-[1,2,4]triazolo[4,3-c]pyrimidin-8-yl)imidazo[1,2-a]pyridin-3-yl)dimethylphosphine oxide]",,0.0023 µM
"Cc1ncc(-c2cnc(NCc3c(F)ccc4c3CCO4)n3cnnc23)c2ncnn12 [N-((5-fluoro-2,3-dihydrobenzofuran-4-yl)methyl)-8-(5-methyl-[1,2,4]triazolo[1,5-c]pyrimidin-8-yl)-[1,2,4]triazolo[4,3-c]pyrimidin-5-amine]",0.0025 µM,0.0045 µM
"Cc1ccc(-c2cnc(NCc3c(F)ccc4c3CCO4)n3cnnc23)c2ncc(C(=O)N3CCOCC3)n12 [(8-(5-(((5-fluoro-2,3-dihydrobenzofuran-4-yl)methyl)amino)-[1,2,4]triazolo[4,3-c]pyrimidin-8-yl)-5-methylimidazo[1,2-a]pyridin-3-yl)(morpholino)methanone]",0.0011 µM,0.0024 µM
"Fc1ccc2c(c1CNc1ncc(-c3cccc4cn[nH]c34)c3nncn13)CCO2 [N-((5-fluoro-2,3-dihydrobenzofuran-4-yl)methyl)-8-(1H-indazol-7-yl)-[1,2,4]triazolo[4,3-c]pyrimidin-5-amine]",0.0023 µM,0.0016 µM
"CN(C)Cc1ccc(-c2cnc(NCc3c(F)ccc4c3CCO4)n3cnnc23)c2ncnn12 [8-(5-((dimethylamino)methyl)-[1,2,4]triazolo[1,5-a]pyridin-8-yl)-N-((5-fluoro-2,3-dihydrobenzofuran-4-yl)methyl)-[1,2,4]triazolo[4,3-c]pyrimidin-5-amine]",0.0005 µM,0.0006 µM
"Fc1ccc2c(c1CNc1ncc(-c3ccc(N4CCCC4)n4ncnc34)c3nncn13)CCO2 [N-((5-fluoro-2,3-dihydrobenzofuran-4-yl)methyl)-8-(5-(pyrrolidin-1-yl)-[1,2,4]triazolo[1,5-a]pyridin-8-yl)-[1,2,4]triazolo[4,3-c]pyrimidin-5-amine]",0.0032 µM,0.0027 µM
"CC(=O)NCc1cnc2c(-c3cnc(NCc4c(F)ccc5c4CCO5)n4cnnc34)ccc(C)n12 [N-((8-(5-(((5-fluoro-2,3-dihydrobenzofuran-4-yl)methyl)amino)-[1,2,4]triazolo[4,3-c]pyrimidin-8-yl)-5-methylimidazo[1,2-a]pyridin-3-yl)methyl)acetamide]",0.0032 µM,0.0024 µM
"COc1cc(-c2cnc(NCc3c(F)ccc4c3CCO4)n3cnnc23)c2ncnn2c1 [N-((5-fluoro-2,3-dihydrobenzofuran-4-yl)methyl)-8-(6-methoxy-[1,2,4]triazolo[1,5-a]pyridin-8-yl)-[1,2,4]triazolo[4,3-c]pyrimidin-5-amine]",0.0017 µM,0.0012 µM
"Cc1ccc(-c2cnc(NCc3c(F)ccc4c3CCO4)n3cnnc23)c2ncc(S(C)(=O)=O)n12 [N-((5-fluoro-2,3-dihydrobenzofuran-4-yl)methyl)-8-(5-methyl-3-(methylsulfonyl)imidazo[1,2-a]pyridin-8-yl)-[1,2,4]triazolo[4,3-c]pyrimidin-5-amine]",,0.088 µM
"COc1ccc(-c2cnc(NCc3c(F)ccc4c3CCO4)n3cnnc23)c2ncc(C#N)n12 [8-(5-(((5-fluoro-2,3-dihydrobenzofuran-4-yl)methyl)amino)-[1,2,4]triazolo[4,3-c]pyrimidin-8-yl)-5-methoxyimidazo[1,2-a]pyridine-3-carbonitrile]",0.0062 µM,0.0039 µM
"Cc1ccc(-c2cnc(NCc3c(F)ccc4c3CCO4)n3cnnc23)c2ncnn12 [N-((5-fluoro-2,3-dihydrobenzofuran-4-yl)methyl)-8-(5-methyl-[1,2,4]triazolo[1,5-a]pyridin-8-yl)-[1,2,4]triazolo[4,3-c]pyrimidin-5-amine]",0.0018 µM,0.0017 µM
"N#Cc1cc(-c2cnc(NCc3c(F)ccc4c3CCO4)n3cnnc23)c2ncnn2c1 [8-(5-(((5-fluoro-2,3-dihydrobenzofuran-4-yl)methyl)amino)-[1,2,4]triazolo[4,3-c]pyrimidin-8-yl)-[1,2,4]triazolo[1,5-a]pyridine-6-carbonitrile]",,0.0143 µM
"CN(C)c1ncc(-c2cnc(NCc3c(F)ccc4c3CCO4)n3cnnc23)c2ncnn12 [8-(5-(dimethylamino)-[1,2,4]triazolo[1,5-c]pyrimidin-8-yl)-N-((5-fluoro-2,3-dihydrobenzofuran-4-yl)methyl)-[1,2,4]triazolo[4,3-c]pyrimidin-5-amine]",,0.0018 µM
"CN(C)c1c(F)cc(-c2cnc(NCc3c(F)ccc4c3CCO4)n3cnnc23)c2ncnn12 [8-(5-(dimethylamino)-6-fluoro-[1,2,4]triazolo[1,5-a]pyridin-8-yl)-N-((5-fluoro-2,3-dihydrobenzofuran-4-yl)methyl)-[1,2,4]triazolo[4,3-c]pyrimidin-5-amine]",,0.0028 µM
"Fc1ccc2c(c1CNc1ncc(-c3ccc(C(F)F)n4ncnc34)c3nncn13)CCO2 [8-(5-(difluoromethyl)-[1,2,4]triazolo[1,5-a]pyridin-8-yl)-N-((5-fluoro-2,3-dihydrobenzofuran-4-yl)methyl)-[1,2,4]triazolo[4,3-c]pyrimidin-5-amine]",,0.0055 µM
"Cc1nc2c(-c3cnc(NCc4c(F)ccc5c4CCO5)n4cnnc34)ccc(N(C)C)n2n1 [8-(5-(dimethylamino)-2-methyl-[1,2,4]triazolo[1,5-a]pyridin-8-yl)-N-((5-fluoro-2,3-dihydrobenzofuran-4-yl)methyl)-[1,2,4]triazolo[4,3-c]pyrimidin-5-amine]",,0.0006 µM
"CN(C)c1ccc(-c2cnc(NCc3c(F)ccc4c3CCO4)n3cnnc23)c2nncn12 [8-(5-(dimethylamino)-[1,2,4]triazolo[4,3-a]pyridin-8-yl)-N-((5-fluoro-2,3-dihydrobenzofuran-4-yl)methyl)-[1,2,4]triazolo[4,3-c]pyrimidin-5-amine]",,0.0078 µM
Cc1ccc(-c2cnc(NCc3c(F)ccc4c3CCO4)n3cnnc23)c2nnc(C)n12,,0.0008 µM
"CCOC(=O)c1cnc2c(-c3cnc(NCc4c(F)ccc5c4CCO5)n4cnnc34)ccc(C)n12 [Ethyl 8-(5-(((5-fluoro-2,3-dihydrobenzofuran-4-yl)methyl)amino)-[1,2,4]triazolo[4,3-c]pyrimidin-8-yl)-5-methylimidazo[1,2-a]pyridine-3-carboxylate]",0.0047 µM,
